Source: patent US20250248968A1, “COMPOSITION COMPRISING CAPSAICIN OR A CAPSACINOID” (MESTEX AG, priority 2019, published 2025)

Legend:
Type in all cases: in vivo, human
[1] = tested on: patient with hip osteoarthritis; assay: Example 1: intra-articular hip infiltration one month before total hip prosthesis, postoperative pain
Method: A patient with hip osteoarthritis and pain for 2 years was not treatable anymore with conventional pain medication (NSAIDS, Paracetamol, opioids, etc.) or infiltration (corticosteroids, hyaluronic acid). Therefore the patient was treated with an infiltration into the hip joint under fluoroscopic control with 0.8 micrograms of Resiniferatoxin dissolved in 250 microliters of Ethanol and mixed with 5 ml buffer solution.
10 minutes prior to the injection a local anesthetic (5 ml lidocaine 2%) was applied under fluoroscopic control intra-articularly to prevent injection pain. Moderate post-injection pain after RTX was controlled with oral administration of morphine. One month later the patient still suffered from relevant impairment of hip mobility and peritrochanteric pain and was treated with implantation of a total hip prosthesis.

[2] = tested on: patient with anterior cruciate ligament rupture with medial meniscal tear; assay: Example 2: intra-articular treatment 3 weeks before cruciate ligament and meniscal repair, postoperative pain and range of motion
Method: A physiotherapist suffered a traumatic anterior cruciate ligament rupture with medial meniscal tear. Due to unacceptable symptoms of instability a surgical reconstruction was scheduled. During the waiting period for the operation 3 weeks preoperatively an intra-articular treatment with 2 micrograms of resiniferatoxin dissolved in Ringers lactate buffer at a concentration of 200 ng/ml with immediate prior administration (i.e. within 1 minute) of a local anesthetic (5 ml 0.5% bupivacaine) was applied.
Three weeks later a crucial ligament repair using patellar tendon autograft and arthroscopic meniscal repair was performed. Postoperative pain was restricted to the first 72 hours and below VAS 2 thereafter. Unexpectedly the passive range of motion was flex-extension of 130-0-0° 3 weeks after the operation and further improving thereafter with minimal (VAS 1) pain.

[3] = tested on: patients with transtendinous rotator cuff tears; assay: Example 3: subacromial injection 2 to 6 weeks before arthroscopic cuff repair, postoperative pain and mobility
Method: A series of 5 patients with a mean age 62 years and transtendinous rotator cuff tears and having been scheduled for arthroscopic cuff repair was 2 to 6 weeks (13 days for two patients and 16,23 and 41 days for the other three patients) preoperatively treated with a subacromial injection of 0.4 microgram resiniferatoxin dissolved in 10 ml 2% lidocaine.
Postinjection pain was controlled with ice packs and NSAIDS. The postoperative pain protocol included 48 hours of interscalene continuous regional anesthesia. Thereafter pain was exceptionally low (VAS <2) in four out of five patients.

[4] = tested on: patients with symptoms of frozen shoulders; assay: Example 4: intra-articular treatment before arthroscopic capsular release, pain and mobility
Method: A series of 3 patients with symptoms of frozen shoulders (VAS >6) for at least six month were scheduled for arthroscopic capsular release. All patients were treated with an intra-articular treatment with 2 micrograms of resiniferatoxin dissolved in 10 ml of physiological salt solution containing 4 mM Ca^2+ with immediate prior administration (2.5 and 15 minutes prior to resiniferatoxin) of a local anesthetic (5 ml 0.25% ropivacaine) at 29, 32 and 40 days preoperatively.
Thereafter pain regressed 2 weeks after injection to a level below VAS 3 in all patients. The postoperative pain treatment after capsulotomy included 5 days of regional continuous anesthesia.

[5] = tested on: patient with symptomatic hallux valgus; assay: Example 5: intra-articular injection one month before hallux valgus surgery, postoperative pain; details: 200 ng intra-articular one month preoperatively; 2 ml 2% Lidocaine 5 minutes prior; 1 patient
Method: A patient with symptomatic hallux valgus was scheduled for surgical treatment. One month preoperatively an intra articular injection 1 ml resiniferatoxin (200 ng) was administered into the interphalangeal join space with prior (5 minutes) periarticular anesthesia using 2 ml 2% Lidocaine.

[6] = tested on: patient with painful rizarthrosis; assay: Example 6: injection into painful joint base before surgery for rizarthrosis, postoperative pain
Method: A patient with painful rizarthrosis was scheduled for surgical treatment of the disease on week prior to the operation. the patient was injected with 1 ml of a physiological saline solution containing 0.9 mg capsaicin into the painful joint base without prior administration of local anesthetics. The massive pain was treated with ice packs and inter-muscular morphine.

Row | SMILES | post-injection pain ([1]; 0.8 micrograms intra-articular hip, 5 ml lidocaine 2% 10 minutes prior, controlled with oral morphine) | need for per oral pain medication ([1]; after second postoperative day) | pain reported thereafter ([1]; after second postoperative day) | postoperative pain ([1]; after total hip prosthesis one month after 0.8 micrograms infiltration, 1 patient) | postoperative pain (VAS) ([1]; first postoperative day) | postoperative pain (VAS) ([1]; second postoperative day) | duration of postoperative pain ([2]; 2 micrograms intra-articular 3 weeks preoperatively, 5 ml 0.5% bupivacaine immediately prior, 1 patient) [h] | postoperative pain (VAS) ([2]; after the first 72 hours) | pain (VAS) ([2]; from 3 weeks after the operation, range of motion further improving) | postoperative pain (VAS) ([3]; after 48 hours of interscalene regional anesthesia, in four out of five patients, 0.4 microgram in 10 ml 2% lidocaine subacromial) | clinical signs of stiff or frozen shoulder ([3]; postoperative course up to 1 year follow up) | glenohumeral abduction ([3]; six weeks postoperatively) | pain upon passive external rotation ([3]; six weeks postoperatively, 5 patients) | passive external rotation, difference to contralateral side ([3]; six weeks postoperatively, all patients) [°] | pain level (VAS) ([4]; 2 weeks after injection, before surgery, all 3 patients, 2 micrograms intra-articular with 4 mM Ca2+, 5 ml 0.25% ropivacaine prior, baseline VAS >6) | postoperative pain (VAS) ([4]; after 5 days of regional continuous anesthesia following capsulotomy, all patients) | maintenance of intraoperatively achieved mobility ([4]; after capsulotomy, all patients) | need for pain medication after surgery [5] | pain after injection ([6]; 0.9 mg in 1 ml saline without prior local anesthetics, treated with ice packs and morphine) | postoperative pain ([6]; 0.9 mg injected on(e) week prior to the operation, 1 patient)
1 | C=C(C)[C@]12C[C@@H](C)[C@@]34O[C@](Cc5ccccc5)(O[C@@H]1[C@@H]3C=C(COC(=O)Cc1ccc(O)c(OC)c1)C[C@]1(O)C(=O)C(C)=C[C@@H]41)O2 [resiniferatoxin] | Moderate | did not need any further per oral pain medication | virtually no pain | moderate to none | 5 | 2 | ≤ 72 | < 2 | 1 | < 2 | no clinical signs corresponding to a stiff or frozen shoulder were observed | at least 80 ° | none of the patients reported pain | ≤ 15 | < 3 | < 3 | able to fully maintain their intraoperatively achieved mobility | did not need further pain medication after the second day after surgery |  | 
2 | COc1cc(CNC(=O)CCCC/C=C/C(C)C)ccc1O [capsaicin] |  |  |  |  |  |  |  |  |  |  |  |  |  |  |  |  |  |  | massive pain | almost no postoperative pain
